Measurements published in PMC5218480 (PLoS ONE, 2017).

Tested on: MV-4-11 cells
Test: Gene expression microarray analysis (Affymetrix PrimeView) and GSEA
Assay type: cell-based, human
Design: RFU PODN (11730768_x_at) / Fold change /veh PODN (11730768_x_at) / RFU LINC00158 (11744669_a_at) / Fold change /veh LINC00158 (11744669_a_at) / RFU DUSP10 (11751237_a_at) / Fold change /veh DUSP10 (11751237_a_at) / RFU ID3 (11757404_x_at) / Fold change /veh ID3 (11757404_x_at) / RFU PLEKHG5 (11737974_s_at) / Fold change /veh PLEKHG5 (11737974_s_at) / RFU LRRC4B (11730491_at) / Fold change /veh LRRC4B (11730491_at) / RFU GIMAP4 (11747438_a_at) / Fold change /veh GIMAP4 (11747438_a_at) / RFU KRT8 (11758183_x_at) / Fold change /veh KRT8 (11758183_x_at) / RFU CNN1 (11734310_a_at) / Fold change /veh CNN1 (11734310_a_at) / RFU VPS37D (11726825_at) / Fold change /veh VPS37D (11726825_at) / RFU C10orf10 (11716522_x_at) / Fold change /veh C10orf10 (11716522_x_at) / RFU KIR2DL2 /// KIR2DL4 /// KIR2DL5A /// KIR2DL5B /// KIR2DS1 /// KIR2DS2 /// KIR2DS3 /// KIR2DS4 /// KIR3DL3 /// KIR3DL3 /// KIR3DS1 (11738374_at) / Fold change /veh KIR2DL2 /// KIR2DL4 /// KIR2DL5A /// KIR2DL5B /// KIR2DS1 /// KIR2DS2 /// KIR2DS3 /// KIR2DS4 /// KIR3DL3 /// KIR3DL3 /// KIR3DS1 (11738374_at) / RFU C1QL1 (11718748_at) / Fold change /veh C1QL1 (11718748_at) / RFU TMPRSS4 (11747572_a_at) / Fold change /veh TMPRSS4 (11747572_a_at) / RFU HAMP (11756126_x_at) / Fold change /veh HAMP (11756126_x_at) / RFU RNFT2 (11725882_a_at) / Fold change /veh RNFT2 (11725882_a_at) / RFU NR4A2 (11747474_a_at) / Fold change /veh NR4A2 (11747474_a_at) / RFU ABCC12 (11746883_a_at) / Fold change /veh ABCC12 (11746883_a_at) / RFU TMEM136 (11760407_x_at) / Fold change /veh TMEM136 (11760407_x_at) / RFU CLDN22 /// WWC2 (11732394_at) / Fold change /veh CLDN22 /// WWC2 (11732394_at) / RFU HLA-DPB1 (11760878_x_at) / Fold change /veh HLA-DPB1 (11760878_x_at) / RFU SPINT1 (11716480_a_at) / Fold change /veh SPINT1 (11716480_a_at) / RFU GAP43 (11754022_s_at) / Fold change /veh GAP43 (11754022_s_at) / RFU A4GNT (11735810_at) / Fold change /veh A4GNT (11735810_at) / RFU PRB3 (11715151_x_at) / Fold change /veh PRB3 (11715151_x_at) / RFU TUBB4B (11761932_at) / Fold change /veh TUBB4B (11761932_at) / RFU CAPN14 (11732068_a_at) / Fold change /veh CAPN14 (11732068_a_at) / RFU TMCC2 (11721928_a_at) / Fold change /veh TMCC2 (11721928_a_at) / RFU IRGQ (11745062_a_at) / Fold change /veh IRGQ (11745062_a_at) / RFU FAM174B (11720279_a_at) / Fold change /veh FAM174B (11720279_a_at) / RFU TMPRSS4 (11748680_a_at) / Fold change /veh TMPRSS4 (11748680_a_at) / RFU FAM212B (11763350_a_at) / Fold change /veh FAM212B (11763350_a_at) / RFU PLEKHG5 (11743358_a_at) / Fold change /veh PLEKHG5 (11743358_a_at) / RFU ZSCAN30 (11745921_a_at) / Fold change /veh ZSCAN30 (11745921_a_at) / RFU CMKLR1 (11741424_a_at) / Fold change /veh CMKLR1 (11741424_a_at) / RFU LOC101060620 /// MAPK8IP1 (11723275_at) / Fold change /veh LOC101060620 /// MAPK8IP1 (11723275_at) / RFU SPTSSB (11747773_x_at) / Fold change /veh SPTSSB (11747773_x_at) / RFU PRSS12 (11739890_at) / Fold change /veh PRSS12 (11739890_at) / RFU BIN1 (11741810_x_at) / Fold change /veh BIN1 (11741810_x_at) / RFU WNT11 (11732464_a_at) / Fold change /veh WNT11 (11732464_a_at) / RFU C10orf10 (11716521_a_at) / Fold change /veh C10orf10 (11716521_a_at) / RFU C5orf56 (11738089_at) / Fold change /veh C5orf56 (11738089_at) / RFU CYB561 (11721691_x_at) / Fold change /veh CYB561 (11721691_x_at) / RFU ANKRD19P (11752326_a_at) / Fold change /veh ANKRD19P (11752326_a_at) / RFU OR2T12 /// OR2T33 /// OR2T8 (11738714_s_at) / Fold change /veh OR2T12 /// OR2T33 /// OR2T8 (11738714_s_at) / RFU VCAN (11748164_a_at) / Fold change /veh VCAN (11748164_a_at) / RFU JSRP1 (11732532_at) / Fold change /veh JSRP1 (11732532_at) / RFU KRTAP10-11 (11738290_x_at) / Fold change /veh KRTAP10-11 (11738290_x_at) / RFU MYO3A (11730013_a_at) / Fold change /veh MYO3A (11730013_a_at) / RFU EBF3 (11725865_a_at) / Fold change /veh EBF3 (11725865_a_at) / RFU CAMK2N1 (11719241_x_at) / Fold change /veh CAMK2N1 (11719241_x_at) / RFU C5orf56 (11738088_a_at) / Fold change /veh C5orf56 (11738088_a_at) / RFU OLFML3 (11715873_a_at) / Fold change /veh OLFML3 (11715873_a_at) / RFU LOC100653217 /// NTM (11731650_a_at) / Fold change /veh LOC100653217 /// NTM (11731650_a_at) / RFU MAPK11 (11762145_a_at) / Fold change /veh MAPK11 (11762145_a_at) / RFU FIZ1 (11724087_x_at) / Fold change /veh FIZ1 (11724087_x_at) / RFU OASL (11726364_x_at) / Fold change /veh OASL (11726364_x_at) / RFU SOX15 (11748057_x_at) / Fold change /veh SOX15 (11748057_x_at) / RFU CD79A (11719716_a_at) / Fold change /veh CD79A (11719716_a_at) / RFU HIST1H1D (11736915_at) / Fold change /veh HIST1H1D (11736915_at) / RFU CASKIN2 (11723855_a_at) / Fold change /veh CASKIN2 (11723855_a_at) / RFU LOC730098 (11760151_x_at) / Fold change /veh LOC730098 (11760151_x_at) / RFU OR4N2 (11742367_at) / Fold change /veh OR4N2 (11742367_at) / RFU PRRT2 (11749266_a_at) / Fold change /veh PRRT2 (11749266_a_at) / RFU SNX32 (11753110_a_at) / Fold change /veh SNX32 (11753110_a_at) / RFU CDHR5 (11726645_a_at) / Fold change /veh CDHR5 (11726645_a_at) / RFU RCAN1 (11760418_a_at) / Fold change /veh RCAN1 (11760418_a_at) / RFU FAM167A (11723789_a_at) / Fold change /veh FAM167A (11723789_a_at) / RFU FAM26E (11764081_at) / Fold change /veh FAM26E (11764081_at) / RFU ISYNA1 (11749810_s_at) / Fold change /veh ISYNA1 (11749810_s_at) / RFU ACY1 (11761880_at) / Fold change /veh ACY1 (11761880_at) / RFU 11764098_at / Fold change /veh 11764098_at / RFU SAMD14 (11745864_x_at) / Fold change /veh SAMD14 (11745864_x_at) / RFU NPB (11741838_a_at) / Fold change /veh NPB (11741838_a_at) / RFU TMPRSS6 (11731388_a_at) / Fold change /veh TMPRSS6 (11731388_a_at) / RFU KRTAP10-2 (11738614_at) / Fold change /veh KRTAP10-2 (11738614_at) / RFU ARHGAP8 /// PRR5-ARHGAP8 (11727945_x_at) / Fold change /veh ARHGAP8 /// PRR5-ARHGAP8 (11727945_x_at) / RFU KRTAP5-7 /// NADSYN1 (11734609_at) / Fold change /veh KRTAP5-7 /// NADSYN1 (11734609_at) / RFU RASL12 (11751679_a_at) / Fold change /veh RASL12 (11751679_a_at) / RFU CDKN2B (11736163_a_at) / Fold change /veh CDKN2B (11736163_a_at) / RFU PRF1 (11729649_at) / Fold change /veh PRF1 (11729649_at) / RFU, ZNF638 /// ZNF638-IT1 / Fold change vs veh, ZNF638 /// ZNF638-IT1 / RFU, PANK3 / Fold change vs veh, PANK3 / RFU, SH3YL1 / Fold change vs veh, SH3YL1 / RFU, ZEB2 / Fold change vs veh, ZEB2 / RFU, NRIP1 / Fold change vs veh, NRIP1 / RFU, PTTG1IP / Fold change vs veh, PTTG1IP / RFU, CAPN2 / Fold change vs veh, CAPN2 / RFU, MED14 / Fold change vs veh, MED14 / RFU, SNORA58 / Fold change vs veh, SNORA58 / RFU, C1orf63 / Fold change vs veh, C1orf63 / RFU, LRRFIP1 / Fold change vs veh, LRRFIP1 / RFU, NDUFAF7 / Fold change vs veh, NDUFAF7 / RFU, SLC12A2 / Fold change vs veh, SLC12A2 / RFU, IBTK / Fold change vs veh, IBTK / RFU, ESF1 / Fold change vs veh, ESF1 / Fold change vs veh, TMEM50B / RFU, TAOK1 / Fold change vs veh, TAOK1 / RFU, ACBD3 / Fold change vs veh, ACBD3 / RFU, TMA16 / Fold change vs veh, TMA16 / RFU, RWDD3 / Fold change vs veh, RWDD3 / RFU, BCAT1 / Fold change vs veh, BCAT1 / RFU, EDEM3 / Fold change vs veh, EDEM3 / RFU, TMEM33 / Fold change vs veh, TMEM33 / RFU, WDR75 / Fold change vs veh, WDR75 / RFU, AHCTF1 / Fold change vs veh, AHCTF1 / RFU, TFRC / Fold change vs veh, TFRC / RFU, ZDHHC17 / Fold change vs veh, ZDHHC17 / RFU, NOM1 / Fold change vs veh, NOM1 / RFU, ARL8B / Fold change vs veh, ARL8B / RFU, ZBTB11 / Fold change vs veh, ZBTB11 / RFU, TAMM41 / Fold change vs veh, TAMM41 / RFU, KIAA1704 /// LOC100996395 / Fold change vs veh, KIAA1704 /// LOC100996395 / RFU, ING1 / Fold change vs veh, ING1 / RFU, TRMT61B / Fold change vs veh, TRMT61B / RFU, FUBP3 / Fold change vs veh, FUBP3 / RFU, TP53 / Fold change vs veh, TP53 / RFU, TNKS2 / Fold change vs veh, TNKS2 / RFU, ZFP14 / Fold change vs veh, ZFP14 / RFU, ACTR2 / Fold change vs veh, ACTR2 / RFU, PPP3R1 / Fold change vs veh, PPP3R1 / RFU, PIK3R1 / Fold change vs veh, PIK3R1 / RFU, HNRNPA1 / Fold change vs veh, HNRNPA1 / RFU, RNF170 / Fold change vs veh, RNF170 / RFU, ZNF28 / Fold change vs veh, ZNF28 / RFU, RNGTT / Fold change vs veh, RNGTT / RFU, OGT / Fold change vs veh, OGT / RFU, BRD1 / Fold change vs veh, BRD1 / RFU, MARS / Fold change vs veh, MARS / RFU, ZNF655 / Fold change vs veh, ZNF655 / RFU, FAHD1 / Fold change vs veh, FAHD1 / RFU, BDP1 / Fold change vs veh, BDP1 / RFU, LRRCC1 / Fold change vs veh, LRRCC1 / RFU, ARID1A / Fold change vs veh, ARID1A / RFU, ZNF146 / Fold change vs veh, ZNF146 / RFU, ZNF330 / Fold change vs veh, ZNF330 / RFU, GPN3 / Fold change vs veh, GPN3 / RFU, C9orf123 / Fold change vs veh, C9orf123 / RFU, N4BP2L2 / Fold change vs veh, N4BP2L2 / RFU, ARFIP1 / Fold change vs veh, ARFIP1 / RFU, FAM179B / Fold change vs veh, FAM179B / RFU, BCL10 / Fold change vs veh, BCL10 / RFU, UHRF1BP1L / Fold change vs veh, UHRF1BP1L / RFU, BET1 / Fold change vs veh, BET1 / RFU, CNOT2 / Fold change vs veh, CNOT2 / RFU, ZNF268 / Fold change vs veh, ZNF268 / Fold change vs veh, ZNF507 / RFU, DGCR2 / Fold change vs veh, DGCR2 / RFU, WDSUB1 / Fold change vs veh, WDSUB1 / Fold change vs veh, HSP90B1 /// MIR3652 / RFU, ADSS / Fold change vs veh, ADSS / RFU, GK / Fold change vs veh, GK / RFU, ZNF148 / Fold change vs veh, ZNF148 / RFU, TAF9 / Fold change vs veh, TAF9 / RFU, SLC1A5 / Fold change vs veh, SLC1A5 / RFU, SLMO2 / Fold change vs veh, SLMO2 / RFU, ABCC4 / Fold change vs veh, ABCC4 / RFU, LOC101060439 /// RAP1B / Fold change vs veh, LOC101060439 /// RAP1B / RFU, RFX7 / Fold change vs veh, RFX7 / RFU, GTPBP10 / Fold change vs veh, GTPBP10 / RFU, CNEP1R1 / Fold change vs veh, CNEP1R1 / RFU, BIVM-ERCC5 /// ERCC5 / Fold change vs veh, BIVM-ERCC5 /// ERCC5 / RFU, ILF3 / Fold change vs veh, ILF3 / RFU 11762660_at / Fold change /veh 11762660_at / RFU VCAN (11757783_s_at) / Fold change /veh VCAN (11757783_s_at) / RFU DDX43 (11728927_at) / Fold change /veh DDX43 (11728927_at) / RFU KRT8 (11758188_x_at) / Fold change /veh KRT8 (11758188_x_at) / RFU NKD1 (11759106_at) / Fold change /veh NKD1 (11759106_at) / RFU SRD5A1 (11742802_a_at) / Fold change /veh SRD5A1 (11742802_a_at) / RFU TPSAB1 /// TPSB2 (11721975_s_at) / Fold change /veh TPSAB1 /// TPSB2 (11721975_s_at) / RFU GSTM3 (11746129_a_at) / Fold change /veh GSTM3 (11746129_a_at) / RFU IL23R (11737362_x_at) / Fold change /veh IL23R (11737362_x_at) / RFU TMEM51 (11727254_a_at) / Fold change /veh TMEM51 (11727254_a_at) / RFU PIWIL2 (11732686_x_at) / Fold change /veh PIWIL2 (11732686_x_at) / RFU ORM1 (11744905_x_at) / Fold change /veh ORM1 (11744905_x_at) / RFU CCDC152 (11743942_at) / Fold change /veh CCDC152 (11743942_at) / RFU ECM1 (11717891_a_at) / Fold change /veh ECM1 (11717891_a_at) / RFU IL23R (11748794_a_at) / Fold change /veh IL23R (11748794_a_at) / RFU TNFAIP8L3 (11732012_x_at) / Fold change /veh TNFAIP8L3 (11732012_x_at) / RFU MBOAT4 (11741988_at) / Fold change /veh MBOAT4 (11741988_at) / RFU 11764193_at / Fold change /veh 11764193_at / RFU TMEM53 (11763286_at) / Fold change /veh TMEM53 (11763286_at) / RFU MAGEB2 (11727129_at) / Fold change /veh MAGEB2 (11727129_at) / RFU TMEM200A (11744735_a_at) / Fold change /veh TMEM200A (11744735_a_at) / RFU CCDC152 (11751479_a_at) / Fold change /veh CCDC152 (11751479_a_at) / RFU FAM211A (11726209_a_at) / Fold change /veh FAM211A (11726209_a_at) / RFU RGS16 (11746705_a_at) / Fold change /veh RGS16 (11746705_a_at) / RFU VCAN (11755009_s_at) / Fold change /veh VCAN (11755009_s_at) / RFU RHOB (11743442_s_at) / Fold change /veh RHOB (11743442_s_at) / RFU RGS16 (11720943_a_at) / Fold change /veh RGS16 (11720943_a_at) / RFU RGS16 (11720944_at) / Fold change /veh RGS16 (11720944_at) / RFU, VPS4B / Fold change vs veh, VPS4B / RFU, CREB1 / Fold change vs veh, CREB1 / RFU, DNAJC13 / Fold change vs veh, DNAJC13 / RFU, GNAQ / Fold change vs veh, GNAQ / RFU, CDK5R1 / Fold change vs veh, CDK5R1 / RFU, ZRANB3 / Fold change vs veh, ZRANB3 / RFU, CUL4A / Fold change vs veh, CUL4A / RFU, CCNY / Fold change vs veh, CCNY / RFU, UFL1 / Fold change vs veh, UFL1 / RFU, COG3 / Fold change vs veh, COG3 / RFU, DIAPH2 / Fold change vs veh, DIAPH2 / RFU, SKA2 / Fold change vs veh, SKA2 / RFU, AFF3 / Fold change vs veh, AFF3 / RFU, LMF1 / Fold change vs veh, LMF1 / RFU, IPO11 / Fold change vs veh, IPO11 / RFU, DFFB / Fold change vs veh, DFFB / RFU, FOXP1 / Fold change vs veh, FOXP1 / RFU, CARD8 / Fold change vs veh, CARD8 / RFU, STRN3 / Fold change vs veh, STRN3 / RFU, ADK / Fold change vs veh, ADK / RFU, RASSF2 / Fold change vs veh, RASSF2 / RFU, WIPF1 / Fold change vs veh, WIPF1 / RFU, LARP1B / Fold change vs veh, LARP1B / RFU, RASA1 / Fold change vs veh, RASA1 / RFU, RB1 / Fold change vs veh, RB1 / RFU, PPFIA1 / Fold change vs veh, PPFIA1 / RFU, MAT2A / Fold change vs veh, MAT2A / RFU, CCT5 / Fold change vs veh, CCT5 / RFU, WDR92 / Fold change vs veh, WDR92 / RFU, CUX1 / Fold change vs veh, CUX1 / RFU, TTC7A / Fold change vs veh, TTC7A / RFU, TMEM135 / Fold change vs veh, TMEM135 / RFU, DEPTOR / Fold change vs veh, DEPTOR / RFU, CPM / Fold change vs veh, CPM / RFU, DNAJB6 / Fold change vs veh, DNAJB6 / RFU, CACNA2D3 / Fold change vs veh, CACNA2D3 / RFU, DTX4 / Fold change vs veh, DTX4 / RFU, TFCP2 / Fold change vs veh, TFCP2 / RFU, GMCL1 /// GMCL1P1 / Fold change vs veh, GMCL1 /// GMCL1P1 / RFU, AEBP2 / Fold change vs veh, AEBP2 / RFU, SNHG1 /// SNORD22 /// SNORD25 /// SNORD26 /// SNORD27 /// SNORD28 /// SNORD29 /// SNORD31 / Fold change vs veh, SNHG1 /// SNORD22 /// SNORD25 /// SNORD26 /// SNORD27 /// SNORD28 /// SNORD29 /// SNORD31 / Fold change (Aza/veh), C12orf56 (ProbeSet 11735607_a_at) / Fold change (ACY-1035/veh), C12orf56 (ProbeSet 11735607_a_at) / Fold change (Aza/veh), FGFR1OP (ProbeSet 11751329_s_at) / Fold change (ACY-1035/veh), FGFR1OP (ProbeSet 11751329_s_at) / Fold change (Aza/veh), VPS36 (ProbeSet 11739960_a_at) / Fold change (ACY-1035/veh), VPS36 (ProbeSet 11739960_a_at) / RFU SYPL1 (11715823_x_at) / Fold change /veh SYPL1 (11715823_x_at) / RFU IGFBP7 (11715501_s_at) / Fold change /veh IGFBP7 (11715501_s_at) / RFU REEP3 (11722064_at) / Fold change /veh REEP3 (11722064_at) / RFU IGLL1 (11728026_x_at) / Fold change /veh IGLL1 (11728026_x_at): dose or concentration left out as unconfirmed
Settings: ProbeSet 11719493_s_at; LIST B

Structure (SMILES): Nc1ncn([C@@H]2O[C@H](CO)[C@@H](O)[C@H]2O)c(=O)n1 [azacitidine]
- RFU, TAF9: 607.12 RFU
